Where two headings read alike, the source gives them in different places.
Experiments:
OAT3 = tested on: T1, OAT3; experiment: Substrate specificity / uptake in HEK293-OAT3 cells; format: in vitro ADME; details: for Substrate for OAT3: HEK293-OAT3 vs mock, ± 20 μM probenecid
T1 construct: host or cells: HEK293
Description: (§1) HEK293-mock cells and HEK293 cells overexpressing OAT1 and OAT3 transporters (HEK293-OAT1 and -OAT3, respectively) were seeded in poly-D-lysine-coated 24-well plates at a density of 4 × 10^5 cells/well and cultured for 24 h in DMEM supplemented with 10% FBS and 5 mM non-essential amino acids at 37 °C in 8% CO2 condition.
(§2) For each experiment, the growth medium was discarded after 24 h, and the attached cells were washed with pre-warmed HBSS and incubated with pre-warmed HBSS for 20 min at 37 °C. To confirm the functionality of OAT1 and OAT3, we measured the uptake of 0.1 µM [^3H]PAH and 0.1 µM [^3H]ES, representative substrates for OAT1 and OAT3, respectively, into in the HEK293-mock cells and HEK293-OAT1 and -OAT3 cells, respectively, for 5 min in the presence and absence of 20 µM probenecid, a typical inhibitor for both OAT1 and OAT3 [8, 9]. The cells were then washed three times with 500 μL of ice-cold HBSS immediately after placing the plates on ice. Subsequently, cells were lysed with 10% sodium dodecyl sulfate and mixed with Optiphase cocktail solution overnight. The radioactivity of the cell lysate was measured using a liquid scintillation counter (Microbeta 2; Perkin Elmer Inc., Boston, MA, USA).
(§3) For the concentration dependency in the uptake of DWP16001, the uptake of DWP16001 in a concentration range of 0.5–50 μM dissolved in HBSS was measured for 5 min at 37 °C in the mock cells and HEK293-OAT1 and -OAT3 cells, respectively. After 5 min, the cells were washed three times with 500 μL of ice-cold HBSS immediately after placing the plates on ice.
(§4) In the concentration-dependent uptake studies, the transporter-mediated uptake of DWP16001 was calculated by the subtraction of the transport rates of DWP16001 into the mock cells from those of the HEK293-OAT1 and -OAT3 cells. Kinetic parameters for the OAT1- and OAT3-mediated transport of DWP16001 were determined using the Michaelis-Menten equation [V = Vmax⋅S/(Km + S)] [10].

[1] = logP (partition coefficient of n-octanol/water)
[2] = Protein binding in mouse plasma (rapid equilibrium dialysis); details: 1000 ng/mL, 4 h at 37 °C, mean ± SD, triplicate
Description: (§5) Four hours after incubation at 37 °C on a shaking incubator at 300 rpm, aliquots (50 μL) were collected from both the sample and buffer chambers and treated with equal volumes of fresh PBS and blank plasma or blank kidney homogenate, respectively, to match the sample matrices. The matrix-matched sample (100 μL) was added 100 μL of aqueous solution of D4-DWP16001 (IS, 20 ng/mL), and vigorously mixed with 1000 μL MTBE for 15 min. After centrifugation at 16,000 g for 5 min, samples were kept for 1 h at −80 °C. An organic upper layer was transferred to a clean tube and evaporated to dryness under a gentle stream of nitrogen. Then, the dried extract was reconstituted in 300 µL of mobile phase and a 3 µL aliquot of the reconstituent was injected into the LC-MS/MS system.
Plasma protein binding was calculated using the following Equation (1) [6, 7]. (1) Undiluted free drug fraction (fu)=Drug concentration in buffer chamber/Drug concentration in plasma sample chamber

[3] = Protein binding in 20% mouse kidney homogenate (rapid equilibrium dialysis); details: corrected for dilution, 1000 ng/mL, 4 h at 37 °C, mean ± SD, triplicate
Description: as §5
Kidney protein binding was calculated using the following equations, Equations (2) and (3), and a dilution factor (D as a value of 5) for tissue homogenates was used since we used 20% kidney homogenates [6, 7]. (2) Diluted free drug fraction (fu′)=Drug concentration in buffer chamber/Drug concentration in kidney homogenate chamber, (3) Undiluted free drug fraction (fu)=1/D/(1/fu^′−1)+1/D=fu′×0.2/1−fu′×0.8.

[4] = Pharmacokinetic study and kidney distribution after single oral administration in ICR mice
Description: (§6) An aliquot (30 µL) of each plasma sample was stored at −80 °C until the analysis. […] An aliquot (50 µL) of each kidney homogenate sample was stored at −80 °C until the analysis.
(§7) For the analysis of SGLT2 inhibitors, aliquots of plasma (30 µL) and kidney homogenate (50 µL) were added to 100 μL of aqueous solution of D4-DWP16001 (IS, 20 ng/mL), and vigorously mixed with 500 μL methyl tert-butyl ether (MTBE) for 15 min. After centrifugation at 16,000 g for 5 min, samples were kept for 1 h at −80 °C to make an aqueous layer freeze. An organic upper layer was transferred to a clean tube and evaporated to dryness under a gentle stream of nitrogen. Then, the dried extract was reconstituted in 150 µL of mobile phase, and a 3 µL aliquot of the reconstituent was injected into a liquid chromatography–tandem mass spectrometry (LC–MS/MS) system.
(§8) Pharmacokinetic parameters, such as the area under plasma concentration-time curve from zero to infinity (AUC), were calculated from plasma concentration vs time curves using non-compartment analysis with WinNonlin (version 5.1; Pharsights, Cary, NC, USA). The AUC ratios (i.e., ratios of kidney AUC to plasma AUC) were calculated by dividing the AUC of the three SGLT2 inhibitors in the kidney by the plasma AUC values of the three SGLT2 inhibitors.

OAT1 = tested on: T2, OAT1; experiment: Substrate specificity / uptake in HEK293-OAT1 cells; format: in vitro ADME; details: for Substrate for OAT1: HEK293-OAT1 vs mock, ± 20 μM probenecid
T2 construct: host or cells: HEK293
Description: as §1, §2, §3, §4

in vivo = details: ICR, mouse, po, 1 mg/kg
Description: as §6, §7, §8

SGLT2 = target: T3, SGLT2 (Homo sapiens, UniProt P31639); details: read-out: IC50 values of previous reports; cited from earlier work
T3 construct: host or cells: CHO
T3 sequence (P31639 1-672): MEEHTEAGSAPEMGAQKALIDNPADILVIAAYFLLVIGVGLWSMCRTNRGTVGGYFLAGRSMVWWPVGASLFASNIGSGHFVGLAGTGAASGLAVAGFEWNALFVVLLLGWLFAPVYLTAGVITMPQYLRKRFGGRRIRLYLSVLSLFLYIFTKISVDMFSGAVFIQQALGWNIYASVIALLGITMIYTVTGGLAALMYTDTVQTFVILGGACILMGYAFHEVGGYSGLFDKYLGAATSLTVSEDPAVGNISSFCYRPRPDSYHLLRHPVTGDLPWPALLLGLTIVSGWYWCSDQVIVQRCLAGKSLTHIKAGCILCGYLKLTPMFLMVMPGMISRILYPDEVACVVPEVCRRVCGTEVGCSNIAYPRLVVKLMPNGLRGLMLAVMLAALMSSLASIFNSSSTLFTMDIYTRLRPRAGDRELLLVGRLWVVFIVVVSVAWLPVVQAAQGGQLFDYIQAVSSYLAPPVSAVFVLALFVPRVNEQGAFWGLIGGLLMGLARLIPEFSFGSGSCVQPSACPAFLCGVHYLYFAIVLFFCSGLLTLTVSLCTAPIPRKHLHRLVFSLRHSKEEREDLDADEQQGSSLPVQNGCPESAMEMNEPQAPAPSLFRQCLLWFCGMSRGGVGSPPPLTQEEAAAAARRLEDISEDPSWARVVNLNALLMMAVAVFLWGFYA

[5] = mouse, in vivo, po, 1 mg/kg
Description: as §6, §7, §8

[6] = parameters: method as in PMID 27430987; details: cited from earlier work
[7] = HEK293-OAT3 minus mock, 0.5–50 μM, 5 min
[8] = ICR, mouse, plasma, po, 1 mg/kg
[9] = HEK293-OAT1 minus mock, 0.5–50 μM, 5 min

With `OC[C@H]1O[C@@H](c2cc(Cc3ccc(C4CC4)cc3)c(Cl)c3c2CCO3)[C@H](O)[C@@H](O)[C@@H]1O` [DWP16001] the “Increase of uptake in HEK293-OAT3 cells compared with mock cells” value (OAT3; 2 μM, 5 min) was “two-fold”, the “Substrate for OAT3” value (OAT3; 2 μM, 5 min) was “a substrate” and the “OAT3-mediated uptake: CLint” value (OAT3; [7]) was 8.6 µL/min. The “OAT3-mediated uptake: Vmax” value (OAT3; [7]) was 267.9 pmol/min, the Km at 5 min (OAT3; human, HEK293-OAT3 minus mock, 0.5–50 μM, read-out: OAT3-mediated uptake: Km) was 31.1 µM and the logP [1] was 2.65. The “Protein Binding (% Bound) Plasma” value [2] was 98.50 ± 0.20 % Bound, the “Protein Binding (% Bound) Kidney” value [3] was 97.24 ± 0.08 % Bound and the Kp ([4]; ICR, mouse, kidney homogenate and plasma, po, 1 mg/kg) was 85 ± 16.1. The half-life ([4]; ICR, mouse, kidney, po, 1 mg/kg, t1/2, kidney, single oral 1 mg/kg, ICR mice, mean ± SD, five mice) was 126 ± 80.4 h, the AUC(0-inf) [4, 8] was 1730 ± 340 ng·h/mL and the AUC(0-t) [4, 8] was 1690 ± 340 ng·h/mL. For the same molecule, the Cmax [4, 8] was 371 ± 109 ng/mL, the Tmax [4, 8] was 0.7 ± 0.3 h and the half-life ([4]; ICR, mouse, plasma, po, 1 mg/kg, t1/2, plasma, single oral 1 mg/kg, ICR mice, mean ± SD, five mice) was 3.8 ± 1.4 h. For the same molecule, the AUC72h ([4]; kidney, single oral 1 mg/kg, ICR mice, mean ± SD, five mice) was 139.2 ± 5.19 μg∙h/g tissue, the “Increase of uptake in HEK293-OAT1 cells compared with mock cells” value (OAT1; 2 μM, 5 min) was “two-fold” and the “Substrate for OAT1” value (OAT1; 2 μM, 5 min) was “a substrate”. The “OAT1-mediated uptake: CLint” value (OAT1; [9]) was 3.1 µL/min, the “OAT1-mediated uptake: Vmax” value (OAT1; [9]) was 119.2 pmol/min and the Km at 5 min (OAT1; human, HEK293-OAT1 minus mock, 0.5–50 μM, read-out: OAT1-mediated uptake: Km) was 38 µM.
With `OC[C@H]1O[C@@H](c2ccc(F)c(Cc3cc4ccccc4s3)c2)[C@H](O)[C@@H](O)[C@@H]1O` [Ipragliflozin, ipragliflozin] the “Substrate for OAT3” value (OAT3; 2 μM, 5 min) was “not substrates”, the AUC(0-inf) (in vivo) was 1970 ± 410 ng·h/mL and the AUC(0-t) (in vivo) was 1960 ± 410 ng·h/mL. It also gave a Cmax (in vivo) of 410 ± 59.1 ng/mL, a Kp (in vivo) of 38.4 ± 5.3 and a Tmax (in vivo) of 0.6 ± 0.2 h. For the same molecule, the IC50 (SGLT2) was 6.75 to 8.07 nM, the logP (physchem) was 2.56 and the “Substrate for OAT1” value (OAT1; 2 μM, 5 min) was “not substrates”. For the same molecule, the AUC72h [5] was 73.65 ± 7.05 μg∙h/g tissue and the “Duration of increased urinary glucose excretion post dose” value [6] was at least 18 h.

— article PMC7151106 (Pharmaceutics, 2020)
